Assay results as given in patent US20020114804A1, “A METHOD OF TREATING INFECTION OF SUTURES AND PROSTHETIC DEVICES” (priority 1996, published 2002).

How the values were obtained:
Assay type in all cases: cell-based, human
[1] = system: PMNs; assay: Exclusion of fluorescein-conjugated F(ab)2 anti-fibrin from zones of contact between PMNs and fibrin
Source text: Therefore, the exclusion of fluorescein-conjugated F(ab)2 anti-fibrin from zones of contact between LTB4- or IL-8-stimulated PMNs and fibrin was used as a measure of the interaction of these cells with fibrin-coated surfaces. About 50% of fibrin-adherent LTB4- or IL-8-stimulated PMNs formed adhesive zones that excluded this high molecular weight (100 kDa.) probe. As expected from studies with Rh-PEG (FIG. 8), >99% of fibrin-adherent TNF- or fMLP-stimulated PMNs excluded fluorescein-conjugated F(ab)2 anti-fibrin from their zones of contact with fibrin (data not shown).

[2] = system: monocytes; assay: Monocyte migration through collagen I coated inserts; conditions: collagen I alone, 24 h
Method: Cultured monocytes were prepared by allowing 10^7 total mononuclear cells, suspended in 10 ml of RMPI 1640 medium supplemented with 10% pooled human serum (1640+HS), or 10% autologous serum (1640+AS), to adhere to Falcon T-150 tissue culture Petri dishes for 2 h at 37° C. Non-adherent cells were removed by washing, leaving an adherent cell population consisting of greater than 98% monocytes as measured by their capacity to phagocytose IgG coated sheep red blood cells. For migration studies, monocytes were maintained in culture for 24 h in RPMI 1640+HS or AS, and detached from the dishes by gentle pipetting of 10 ml of ice cold phosphate buffered saline (without Ca^2+ or Mg^2+) containing 1.0 mM EDTA. The cells recovered were resuspended in RPMI-1640+HS as described (65).
Cell culture inserts containing polyethylene terephthalate filters, 8-μm pore size (Becton-Dickinson), were overlaid with 0.1 ml of Matrigel (20-25 μg protein/filter) (Collaborative Research, Bedford, Mass.), and incubated at room temperature until they dried. These Matrigel-coated filters were washed with phosphate buffered saline containing 1.0 mM Mg^2+ and 1.0 mM Ca^2+ (PBS). 0.1 ml of a PBS solution (pH 7.2) containing the indicated amount of purified chick brain tenascin was added to some of the inserts. The filters were incubated at room temperature until they dried. […]

[3] = system: PMNs; assay: PMN migration through gels of Matrigel or collagen IV; conditions: added to the bottom chamber
Method: (§1) Becton-Dickinson cell culture inserts (pore sizes 3 or 8 μm: Franklin Lakes, N.J.) were overlaid with the following proteins:
Collagen type IV and Matrigel matrices: 0.1 ml PBS containing 100 μg human placental collagen IV (Fluka Chemical Corp., Ronkonkoma, N.Y.), or 80 μg of reconstituted basement membrane proteins (Matrigel, Collaborative Research, Bedford, Mass.), was placed into each insert and allowed to gel at room temperature for 24 hrs.
PMNs were prepared from fresh heparinized blood from healthy adult volunteers by sedimentation on Ficoll-Hypaque gradients. Contaminating red blood cells were removed by hypotonic lysis, as described (7). The purity of PMN isolated by this method is >95% as determined by Wright-Giemsa staining (7). 10^6 PMNs in 250 μl of PBS supplemented with 5.5 mM glucose and 0.1% human serum albumin (PBSG-HSA), were placed in the upper compartment of each insert and incubated for 0-6 hrs at 37° C. in a humidified atmosphere containing 95% air/5% CO2. At the times and concentrations specified, chemoattractants/cytokines were added to the top or bottom compartment in 250 μl of PBSG-HSA. […] The medium in each lower compartment was collected and its content of PMNs was determined using either a Coulter Counter or a hemocytometer. […] Counts are expressed as the average number of PMNs that migrated into the lower compartment. […]

[4] = system: PMNs; assay: PMN migration through filters coated with fibrinogen or fibronectin
Method: as §1
Fibrinogen or fibronectin: 0.1 ml of PBS containing 100 μg/ml fibrinogen or fibronectin (New York Blood Center, New York, N.Y.), was placed into each insert (pore size 3 μm). Inserts were incubated at 37° C. for 60 min and washed with 250 μl of PBS. Filters coated with fibrinogen or fibronectin were diffusely fluorescent as visualized by epifluorescent microscopy when incubated with the corresponding antibody [fluorescein-labeled anti-fibrinogen, or anti-fibronectin monoclonal antibodies (Cappel, Malvern, Pa.)], while uncoated filters, or filters incubated with fluorescein-labeled antibody of the opposite specificity, were not.
PMNs were prepared from fresh heparinized blood from healthy adult volunteers by sedimentation on Ficoll-Hypaque gradients. Contaminating red blood cells were removed by hypotonic lysis, as described (7). The purity of PMN isolated by this method is >95% as determined by Wright-Giemsa staining (7). […] The medium in each lower compartment was collected and its content of PMNs was determined using either a Coulter Counter or a hemocytometer. […] Counts are expressed as the average number of PMNs that migrated into the lower compartment. […]

[5] = system: PMNs; assay: PMN migration through Matrigel or Matrigel/tenascin coated filters; conditions: Matrigel alone
Method: Polymorphonuclear leukocytes (PMN), were prepared as described (7) from heparinized human blood by sedimentation on Ficoll-Hypaque gradients. Contaminating red blood cells were removed by hypotonic lysis. The purity of PMN isolated by this method was >95% as determined by Wright-Giemsa staining.
Cell culture inserts containing polyethylene terephthalate filters, 8-μm pore size (Becton-Dickinson), were overlaid with 0.1 ml of Matrigel (20-25 μg protein/filter) (Collaborative Research, Bedford, Mass.), and incubated at room temperature until they dried. These Matrigel-coated filters were washed with phosphate buffered saline containing 1.0 mM Mg^2+ and 1.0 mM Ca^2+ (PBS). 0.1 ml of a PBS solution (pH 7.2) containing the indicated amount of purified chick brain tenascin was added to some of the inserts. The filters were incubated at room temperature until they dried. These protein-coated filters were washed again with PBS and used within 12 h for cell migration studies. To prepare collagen I-coated inserts, filters were coated with rat tail collagen I (ICN Biochemicals, Costa, Mesa, Calif.) (400 μg/ml in PBS), by adding 0.1 ml of this solution to an insert and incubating the inserts at room temperature for 24 h. Some of these collagen I-coated filters were then incubated with tenascin as described above.
PMN: 250 μl of PBS [supplemented with 5.5 mM glucose and 0.1% human serum albumin (HSA) (PBSG-HSA)] containing 1×10^6 PMNs was placed in the upper compartment of each insert. 250 μl of PBSG-HSA with or without chemoattractant, as indicated, was added to the bottom compartment. The inserts were incubated for about 4 h at 37° C. in a humidified atmosphere containing 95% air/5% CO2. […] The medium in the lower compartment was collected and its content of PMN determined using a Coulter Counter, as described in Example 1.

CCCCC/C=C\C[C@@H](O)/C=C/C=C/C=C\[C@@H](O)CCCC(=O)O [LTB4, leukotriene B4]
Fibrin-adherent PMNs that excluded fluorescein-conjugated F(ab)2 anti-fibrin (100 kDa) [1]: About 50%
Monocytes that migrated through inserts coated with collagen I [2]: 18%
PMN migration through gels of Matrigel or collagen IV [3]: stimulated PMN migration
PMN migration through filters with adsorbed fibrinogen or fibronectin [4]: promoted PMN migration
PMNs that migrated through Matrigel-coated inserts [5]: ~10%
